The target in data set [1] is T1, purified recombinant enzyme Cdc25-C (MBP-Cdc25C) (Homo sapiens, UniProt P30307).
T1 construct: made in house
T1 sequence (P30307 1-473): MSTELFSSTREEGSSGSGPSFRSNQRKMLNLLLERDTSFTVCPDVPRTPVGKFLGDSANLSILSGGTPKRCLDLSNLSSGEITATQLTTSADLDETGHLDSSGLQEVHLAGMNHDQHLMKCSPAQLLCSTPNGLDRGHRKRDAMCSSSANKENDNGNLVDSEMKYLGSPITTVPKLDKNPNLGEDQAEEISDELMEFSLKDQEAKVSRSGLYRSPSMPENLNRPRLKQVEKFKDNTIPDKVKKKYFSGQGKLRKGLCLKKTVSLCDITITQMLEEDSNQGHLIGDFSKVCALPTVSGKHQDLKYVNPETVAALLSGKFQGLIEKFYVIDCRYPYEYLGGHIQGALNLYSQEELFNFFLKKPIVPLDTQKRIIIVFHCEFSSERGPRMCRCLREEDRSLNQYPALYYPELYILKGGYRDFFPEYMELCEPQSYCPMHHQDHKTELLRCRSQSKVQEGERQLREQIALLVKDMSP
Kind of data set: Measurement of the phosphatase activity of the purified recombinant enzyme Cdc25C (OMFP dephosphorylation, fluorescence). Type of data set: biochemical. The note with it: OMFP 500 μM, 4 hours at 30° C. The protocol:
i) Measurement of the Phosphatase Activity of the Purified Recombinant Enzyme Cdc25C
The phosphatase activity of the protein MBP-Cdc25C is evaluated by the dephosphorylation of 3-O-methylfluorescein-phosphate (OMFP) to 3-O-methylfluorescein (OMF) with a determination of the fluorescence at 475 nm of the reaction product. This test makes it possible to identify inhibitors of the recombinant enzyme cdc25. The preparation of the fusion protein MBP-Cdc25C is described in the Patent Application PCT WO 01/44467.
The reaction is carried out in 384-well plate format at a final volume of 50 μl. The protein MBP-Cdc25C (prepared as described above) is preserved in the following elution buffer: 20 mM Tris-HCl pH 7.4; 250 mM NaCl; 1 mM EDTA; 1 mM of dithiothreitol (DTT); 10 mM maltose. It is diluted to a concentration of 60 μM in the following reaction buffer: 50 mM Tris-HCl pH 8.2; 50 mM NaCl; 1 mM DTT; 20% glycerol. Measurement of the background noise is carried out with the buffer without the addition of the enzyme. The products are tested at decreasing concentrations starting from 40 μM. The reaction is initiated by the addition of an OMFP solution at 500 μM final (prepared extemporaneously from a 12.5 mM stock solution in 100% DMSO (Sigma #M2629)). After 4 hours at 30° C. in a single-use 384-well plate, the fluorescence measured at OD 475 nm is read using a Victor^2 plate reader (EGG-Wallac). The determination of the concentration inhibiting the enzyme reaction by 50% is calculated from three independent experiments. Only the values contained in the linear part of the sigmoid are retained for linear regression analysis.

Data set [2] deals with Mia-Paca2 lines (human pancreatic cancer cells). Kind of data set: Anti-proliferative activity, WST1 colorimetric test, Mia-Paca2 cells. The data set is classed as cell-based. The note with it: MIA PaCa-2, 96 hours treatment, up to 10 μM, read-out: IC50 on the cell proliferation of the Mia-Paca2 lines. The protocol: (§1) ii) Characterization of Anti-Proliferative Activity:
(§2) By way of example, the effect of a treatment by the compounds of the examples described previously on two lines of human Mia-Paca2 and DU145 cells will be studied. The cell lines DU145 (human prostate cancer cells) and Mia-PaCa2 (human pancreatic cancer cells) were acquired from the American Tissue Culture Collection (Rockville, Md., USA). The cells placed in 80 μl of Dulbecco's Modified Eagle medium (Gibco-Brl, Cergy-Pontoise, France) completed with 10% foetal calf serum inactivated by heating (Gibco-Brl, Cergy-Pontoise, France), 50,000 units/l of penicillin and 50 mg/l streptomycin (Gibco-Brl, Cergy-Pontoise, France), and 2 mM of glutamine (Gibco-Brl, Cergy-Pontoise, France) were seeded on a 96-well plate on day 0. The cells were treated on day 1 for 96 hours at increasing concentrations of each of the compounds to be tested up to 10 μM. At the end of the of this period, quantification of the cell proliferation is evaluated by a colorimetric test based on the cleavage of the tetrazolium salt WST1 by the mitochondrial dehydrogenases in the viable cells leading to the formation of formazan (Boehringer Mannheim, Meylan, France). These tests are carried out in duplicate with 8 determinations per concentration tested. For each compound to be tested, the values included in the linear part of the sigmoid were retained for linear regression analysis and used in order to estimate the inhibitory concentration IC50. The products are solubilized in dimethylsulphoxide (DMSO) at to 10^−2M and finally used in culture with 0.1% DMSO.

For data set [3], the system named is DU-145 lines (human prostate cancer cells). Kind of data set: Anti-proliferative activity, WST1 colorimetric test, DU145 cells. The note with it: 96 hours treatment, up to 10 μM, read-out: IC50 on the cell proliferation of the DU-145 lines. The data set is classed as cell-based. The method, then: as §1, §2
A general note: Tetrazolium dyes change colour on reduction, which living cells bring about.

The values that follow come from US8017637B2, “Inhibitors of cdc phosphatases” (Ipsen Pharma S.A.S., priority 2004, dated 2011).

What is called melting point is the temperature, or range, at which the solid turns liquid.

For the compound `Cc1nc2c(s1)C(=O)C(NCCCN(C)CCCNC1=CC(=O)c3nc(C)sc3C1=O)=CC2=O` [Example 5, 6.6′-[(methylimino)bis(propane-3,1-diylimino)]bis(2-methyl-1,3-benzothiazole-4,7-dione)], the melting point is 91 to 93 °C. In data set [1], the IC50 is at most 1 µM. In addition, the IC50 in data set [2] is at most 10 µM. In data set [3], the IC50 was at most 10 µM.
For `CN(CCCNC1=CC(=O)c2sc(C(=O)NCCCN3CCCC3=O)nc2C1=O)CCCNC1=CC(=O)c2sc(C(=O)NCCCN3CCCC3=O)nc2C1=O` [Example 7, 5.5′-[(methylimino)bis(propane-3,1-diylimino)]bis{4,7-dioxo-N-[3-(2-oxopyrrolidin-1-yl)propyl]-4,7-dihydro-1,3-benzothiazole-2-carboxamide}], the melting point was in the range of 185 to 186 °C. For the same compound, the IC50 in data set [1] is at most 1 µM. Further, the IC50 in data set [2] is at most 10 µM. Moreover, the IC50 in data set [3] is at most 10 µM.
Compound `CN(CCCNC1=CC(=O)c2nc(-c3cc(F)ccc3F)oc2C1=O)CCCNC1=CC(=O)c2nc(-c3cc(F)ccc3F)oc2C1=O` [Example 8, 6.6′-[(methylimino)bis(propane-3,1-diylimino)]-bis[2-(2,5-difluorophenyl)-1,3-benzoxazole-4,7-dione]] yielded a melting point of 209 to 210 °C. Further, in data set [1], the IC50 was at most 1 µM. The IC50 in data set [2] was at most 10 µM. The IC50 in data set [3] is at most 10 µM.
The compound `CN(CCCNC1=CC(=O)c2nc(Cc3c(F)cccc3Cl)oc2C1=O)CCCNC1=CC(=O)c2nc(Cc3c(F)cccc3Cl)oc2C1=O` [Example 10, 6.6′-[(methylimino)bis(propane-3,1-diylimino)]bis[2-(2-chloro-6-fluorobenzyl)-1,3-benzoxazole-4,7-dione]] had a melting point of 165 to 167 °C. Besides, the IC50 in data set [1] is at most 1 µM. In addition, in data set [2], the IC50 was at most 10 µM. Moreover, in data set [3], the IC50 was at most 10 µM.
In the case of `CN(CCCNC1=CC(=O)c2nc(-c3cccc(Br)c3)oc2C1=O)CCCNC1=CC(=O)c2nc(-c3cccc(Br)c3)oc2C1=O` [Example 11, 6.6′-[(methylimino)bis(propane-3,1-diylimino)]-bis[2-(3-bromophenyl)-1,3-benzoxazole-4,7-dione]], the melting point lay in the range of 199 to 200 °C. Further, in data set [1], the IC50 was at most 5 µM. Besides, the IC50 in data set [2] is at most 10 µM. Moreover, the IC50 in data set [3] is at most 10 µM.
`CN(CCCNC1=CC(=O)c2nc(-c3cccc(Cl)c3)oc2C1=O)CCCNC1=CC(=O)c2nc(-c3cccc(Cl)c3)oc2C1=O` [Example 14, 6.6′-[(methylimino)bis(propane-3,1-diylimino)]-bis[2-(3-chlorophenyl)-1,3-benzoxazole-4,7-dione]] showed a melting point of 196 to 197 °C. For the same compound, the IC50 in data set [1] was at most 1 µM. Further, the IC50 in data set [2] is at most 10 µM. For the same compound, the IC50 in data set [3] is at most 10 µM.
The compound `CN(CCCNC1=CC(=O)c2nc(-c3ccc(F)cc3)oc2C1=O)CCCNC1=CC(=O)c2nc(-c3ccc(F)cc3)oc2C1=O` [Example 15, 6.6′-[(methylimino)bis(propane-3,1-diylimino)]-bis[2-(4-fluorophenyl)-1,3-benzoxazole-4,7-dione]] had a melting point of 204 to 205 °C. The IC50 in data set [1] is at most 1 µM. Further, in data set [2], the IC50 was at most 10 µM. For the same compound, the IC50 in data set [3] is at most 10 µM.
Compound `Cc1nc2c(s1)C(=O)C=C(NCCCN(CCCNC1=CC(=O)c3sc(C)nc3C1=O)CCCNC1=CC(=O)c3sc(C)nc3C1=O)C2=O` [Example 18] displayed a melting point of 131 to 132 °C. Moreover, the IC50 in data set [1] is at most 1 µM. In data set [2], the IC50 is at most 10 µM. Besides, the IC50 in data set [3] is at most 10 µM.
As for `Cc1nc2c(s1)C(=O)C=C(NCC1CCC(CNC3=CC(=O)c4sc(C)nc4C3=O)CC1)C2=O` (stereo not drawn) [Example 20, 5.5′-[cyclohexane-1,4-diylbis(methyleneimino)]bis(2-methyl-1,3-benzothiazole-4,7-dione)], the melting point was above 240 °C. The IC50 in data set [1] is at most 1 µM. In addition, the IC50 in data set [2] is at most 10 µM. Further, the IC50 in data set [3] was at most 10 µM.
As for `CN(CCCNC1=CC(=O)c2scnc2C1=O)CCCNC1=CC(=O)c2scnc2C1=O` [Example 25, 5.5′-[(methylimino)bis(propane-3,1-diylimino)]bis(1,3-benzothiazole-4,7-dione)], the melting point fell in the range of 223 to 224 °C. Moreover, the IC50 in data set [1] was at most 1 µM. Moreover, in data set [2], the IC50 is at most 10 µM. Further, in data set [3], the IC50 was at most 10 µM.
On to `CN(CCCNC1=CC(=O)c2sc(C(=O)N3CCOCC3)nc2C1=O)CCCNC1=CC(=O)c2sc(C(=O)N3CCOCC3)nc2C1=O` [Example 26, 5.5′-[(methylimino)bis(propane-3,1-diylimino)]bis[2-(morpholin-4-ylcarbonyl)-1,3-benzothiazole-4,7-dione]], for which the melting point was in the range of 207 to 208 °C. In addition, the IC50 in data set [1] is at most 1 µM. The IC50 in data set [2] was at most 10 µM. For the same compound, the IC50 in data set [3] was at most 10 µM.
`CN(CCCNC1=CC(=O)c2nc(C(=O)N3CCCC3)sc2C1=O)CCCNC1=CC(=O)c2nc(C(=O)N3CCCC3)sc2C1=O` [Example 31, 6.6′-[(methylimino)bis(propane-3,1-diylimino)]bis[2-(pyrrolidin-1-ylcarbonyl)-1,3-benzothiazole-4,7-dione]] yielded a melting point of 237 to 238 °C. Further, in data set [1], the IC50 was at most 1 µM. In data set [2], the IC50 is at most 10 µM. The IC50 in data set [3] was at most 10 µM.
For the compound `CN(CCCNC1=CC(=O)c2sc(C(=O)Nc3ccc(F)cc3)nc2C1=O)CCCNC1=CC(=O)c2sc(C(=O)Nc3ccc(F)cc3)nc2C1=O` [Example 32, 5.5′-[(methylimino)bis(propane-3,1-diylimino)]bis[N-(4-fluorophenyl)-4,7-dioxo-4,7-dihydro-1,3-benzothiazole-2-carboxamide]], the melting point fell in the range of 262 to 263 °C. Also, the IC50 in data set [1] was at most 1 µM. Moreover, the IC50 in data set [2] is at most 10 µM. The IC50 in data set [3] is at most 10 µM.
Take `COc1ccc(CNC(=O)c2nc3c(s2)C(=O)C=C(NCCCN(C)CCCNC2=CC(=O)c4sc(C(=O)NCc5ccc(OC)cc5)nc4C2=O)C3=O)cc1` [Example 33, 5.5′-[(methylimino)bis(propane-3,1-diylimino)]bis[N-(4-methoxybenzyl)-4,7-dioxo-4,7-dihydro-1,3-benzothiazole-2-carboxamide]]: the melting point was in the range of 174 to 175 °C. Also, in data set [1], the IC50 is at most 1 µM. Further, the IC50 in data set [2] is at most 10 µM. For the same compound, in data set [3], the IC50 is at most 10 µM.
With `CN(CCCNC1=CC(=O)c2sc(C(=O)NC3CCCCC3)nc2C1=O)CCCNC1=CC(=O)c2sc(C(=O)NC3CCCCC3)nc2C1=O` [Example 35, 5.5′-[(methylimino)bis(propane-3,1-diylimino)]bis(N-cyclohexyl-4,7-dioxo-4,7-dihydro-1,3-benzothiazole-2-carboxamide)], the melting point lay in the range of 145 to 146 °C. Moreover, the IC50 in data set [1] is at most 1 µM. Besides, the IC50 in data set [2] was at most 10 µM. Moreover, the IC50 in data set [3] was at most 10 µM.
